The text below walks through data of ChEMBL document CHEMBL2434940, “Synthesis and antitumor activities of novel α-aminophosphonates dehydroabietic acid derivatives” (Bioorg Med Chem Lett, 2013).

As a reminder, the IC50 is the midpoint of a concentration-inhibition curve. Low readings indicate greater potency in that assay, high ones weaker potency in that assay.

The subject of one test is NCI-H460. In words: Cytotoxicity against human NCI-H460 cells after 48 hrs by MTT assay. It counts as functional, cell-based. Particulars: NCI-H460, 48 h. (Tetrazolium assays rely on reduction of a dye to a coloured formazan, in cell work by metabolically active cells.)
The molecule `CCOP(=O)(OCC)C(NC(=S)NC(=O)[C@]1(C)CCC[C@]2(C)c3ccc(C(C)C)cc3CC[C@@H]12)c1cccc(OC)c1` (stereo not given in full) showed a half-inhibitory concentration (IC50) of 15.8 µM.
Same read-out and setting: with `CCOP(=O)(OCC)C(NC(=S)NC(=O)[C@]1(C)CCC[C@]2(C)c3ccc(C(C)C)cc3CC[C@@H]12)c1cccc(F)c1` (stereo not given in full) the figure was 27.5 µM.
In turn, `CCOP(=O)(OCC)C(NC(=S)NC(=O)[C@]1(C)CCC[C@]2(C)c3ccc(C(C)C)cc3CC[C@@H]12)c1ccc(F)cc1` (stereo not given in full) returned an IC50 of 4.39 µM.
The molecule `CCOP(=O)(OCC)C(NC(=S)NC(=O)[C@]1(C)CCC[C@]2(C)c3ccc(C(C)C)cc3CC[C@@H]12)c1ccccc1Cl` (stereo not given in full) registered an IC50 of 30.7 µM.
Consider `CCOP(=O)(OCC)C(NC(=S)NC(=O)[C@]1(C)CCC[C@]2(C)c3ccc(C(C)C)cc3CC[C@@H]12)c1ccccc1` (stereo not given in full), for which the 50% inhibitory concentration (IC50) turned out to be 28.1 µM.

Another test deals with A549. Briefly: Cytotoxicity against human A549 cells after 48 hrs by MTT assay. Particulars: A549, 48 h. In kind it is functional, cell-based.
As to `CCOP(=O)(OCC)C(NC(=S)NC(=O)[C@]1(C)CCC[C@]2(C)c3ccc(C(C)C)cc3CC[C@@H]12)c1cccc(OC)c1` (stereo not given in full), the 50% inhibitory concentration (IC50) was 29.6 µM.
On the same count and under the same terms, with `CCOP(=O)(OCC)C(NC(=S)NC(=O)[C@]1(C)CCC[C@]2(C)c3ccc(C(C)C)cc3CC[C@@H]12)c1cccc(F)c1` (stereo not given in full) the figure was 24.4 µM; with `CCOP(=O)(OCC)C(NC(=S)NC(=O)[C@]1(C)CCC[C@]2(C)c3ccc(C(C)C)cc3CC[C@@H]12)c1ccc(F)cc1` (stereo not given in full), 23.4 µM; with `CCOP(=O)(OCC)C(NC(=S)NC(=O)[C@]1(C)CCC[C@]2(C)c3ccc(C(C)C)cc3CC[C@@H]12)c1ccccc1Cl` (stereo not given in full), 19.6 µM.
The molecule `CCOP(=O)(OCC)C(NC(=S)NC(=O)[C@]1(C)CCC[C@]2(C)c3ccc(C(C)C)cc3CC[C@@H]12)c1ccccc1` (stereo not given in full) returned an IC50 of 24.2 µM.

A further test relates to HepG2. In words: Cytotoxicity against human HepG2 cells after 48 hrs by MTT assay. In kind it is functional, cell-based. The note with it: HepG2, 48 h.
As to `CCOP(=O)(OCC)C(NC(=S)NC(=O)[C@]1(C)CCC[C@]2(C)c3ccc(C(C)C)cc3CC[C@@H]12)c1cccc(OC)c1` (stereo not given in full), the IC50 amounted to 18 µM.
Molecule `CCOP(=O)(OCC)C(NC(=S)NC(=O)[C@]1(C)CCC[C@]2(C)c3ccc(C(C)C)cc3CC[C@@H]12)c1cccc(F)c1` (stereo not given in full) yielded a concentration for half-maximal inhibition (IC50) of 31.6 µM.
Turning to `CCOP(=O)(OCC)C(NC(=S)NC(=O)[C@]1(C)CCC[C@]2(C)c3ccc(C(C)C)cc3CC[C@@H]12)c1ccc(F)cc1` (stereo not given in full), half-maximal inhibition (IC50) was put at 10.3 µM.
Molecule `CCOP(=O)(OCC)C(NC(=S)NC(=O)[C@]1(C)CCC[C@]2(C)c3ccc(C(C)C)cc3CC[C@@H]12)c1ccccc1Cl` (stereo not given in full) yielded a half-inhibitory concentration (IC50) of 24.9 µM.
Molecule `CCOP(=O)(OCC)C(NC(=S)NC(=O)[C@]1(C)CCC[C@]2(C)c3ccc(C(C)C)cc3CC[C@@H]12)c1ccccc1` (stereo not given in full) had a half-maximal inhibitory concentration (IC50) of 15.2 µM.

A further test deals with SK-OV-3. Briefly: Cytotoxicity against human SKOV3 cells after 48 hrs by MTT assay. Particulars: SK-OV-3, 48 h. In kind it is functional, cell-based.
In the case of `CCOP(=O)(OCC)C(NC(=S)NC(=O)[C@]1(C)CCC[C@]2(C)c3ccc(C(C)C)cc3CC[C@@H]12)c1cccc(OC)c1` (stereo not given in full), the IC50 came to 9.96 µM.
Consider `CCOP(=O)(OCC)C(NC(=S)NC(=O)[C@]1(C)CCC[C@]2(C)c3ccc(C(C)C)cc3CC[C@@H]12)c1cccc(F)c1` (stereo not given in full), for which the half-maximal inhibitory concentration (IC50) turned out to be 13.7 µM.
The same measure, in the same setting: the value for `CCOP(=O)(OCC)C(NC(=S)NC(=O)[C@]1(C)CCC[C@]2(C)c3ccc(C(C)C)cc3CC[C@@H]12)c1ccc(F)cc1` (stereo not given in full) was 13.5 µM; that for `CCOP(=O)(OCC)C(NC(=S)NC(=O)[C@]1(C)CCC[C@]2(C)c3ccc(C(C)C)cc3CC[C@@H]12)c1ccccc1Cl` (stereo not given in full) was 15.3 µM; that for `CCOP(=O)(OCC)C(NC(=S)NC(=O)[C@]1(C)CCC[C@]2(C)c3ccc(C(C)C)cc3CC[C@@H]12)c1ccccc1` (stereo not given in full) was 12.1 µM.
